From publication PMC8810462, “Targeted fluorescent imaging of a novel FITC-labeled PSMA ligand in prostate cancer” (Amino Acids, 2021)

Columns and labels:
PSMA(−) PC3 cells = experiment: In vitro confocal fluorescence imaging, cell uptake; format: cell-based, human; conditions: 5 μg PSMA-FITC, 37 °C, 60 min
Procedure: (§1) Both the LNCaP cells and PC3 cells were grown in a T25 cell culture flask (Corning Inc., Corning, NY, USA). The cultured LNCaP cells and PC3 cells were inoculated into a confocal dish and placed in an incubator at 37 °C/5% CO2 for 24 h. The medium was changed 2 h before the cell uptake experiment. The medium was removed, the flask rinsed once with PBS, and 5 μg of PSMA-FITC (100 μl) was added to each dish, which was then filled with medium to a final volume of 2 ml. The cells were incubated in an incubator for 60 min, washed 4 times with PBS buffer containing 0.2% BSA. Add 450 μl 4% paraformaldehyde to fix the cells for 10 min then rinse with PBS for four times. Cell nucleus were stained with 450 μl Hoechst33342 for 10 min and rinsed with PBS for four times. Add 500 μl PBS before observation. The cells were observed under confocal microscope (Olympus FV 1000) in dark room. In the blocking group, the LNCaP cells were pretreated with 2-PMPA (20 μg) for 30 min, and then PSMA-FITC was added and incubated for 60 min. The steps are the same as described above in the dark.

PSMA(+) LNCaP cells = experiment: as above; format: cell-based, human
Procedure: as §1

PSMA (−) PC3 tumor = experiment: In vivo fluorescence imaging of tumor-bearing mice; set-up: species or system BALB/c male nude mice; conditions: 0.5 mg/kg tail vein, compared with 22Rv1 tumor-bearing mice
Procedure: (§2) All animal procedures were performed in accordance with the protocol approved by the Animal Care and Use Committee of the PLA General Hospital. BALB/c male nude mice (approximately 3–4 weeks old, with a body weight of 13–15 g) were purchased from Charles River Laboratories (Beijing, China). Then, 0.1 ml (approximately 5 × 10^6 cells) of 22Rv1 cell suspension was subcutaneously injected into the right shoulder of each mouse to form an 22Rv1 tumor xenograft. Vernier calipers were used to measure the length and shortest diameter of the tumor, and the tumor volume was estimated according to the formula (V = 1/2 × long diameter × shortest diameter^2). Fluorescence imaging was performed in vivo and in vitro when the tumor volume reached 200–300 mm^3. The PC3 cell planting method is the same as 22Rv1 cell planting method.
(§3) In vivo fluorescence imaging was performed using the French Biospace Lab in vivo optical imaging system, the PHOTON IMAGER OPTIMA multidimensional real-time awake animal in vivo optical imaging system software was used for analysis, and the FITC exclusive filter was used to collect the fluorescence of PSMA-FITC. All images were collected using the same parameters (lamp voltage, filter, exposure height, exposure time, and field of view). The collected images were processed in a unified manner, and the number of photons per second per centimeter squared per steradian (ph/s/cm^2/sr) was used for analysis. 22Rv1 tumor-bearing mice in the nonblocking group (n = 5) and PC3 tumor-bearing mice (n = 5) were injected with PSMA-FITC (0.5 mg/kg) through the tail vein, and fluorescence imaging was performed at different time points after injection. The 22Rv1 tumor-bearing mice (n = 5) in the blocking group were injected with a mixture of 2-PMPA (2 mg/kg) and PSMA-FITC (0.5 mg/kg), and fluorescence imaging was performed 60 min after the injection. Another 9 22Rv1 tumor-bearing mice were divided into three groups (3/group), PSMA-FITC (0.5 mg/kg) was injected into the tail vein, and the mice were euthanized 30, 60, or 120 min after injection. The tumors, tissues, and organs were dissected, and a fluorescence imaging system was used for in vitro imaging. The ROI was delineated, and the average fluorescence intensity reported.
(§4) All measured values are expressed as the means ± standard deviation. Independent sample t-test was used for statistical analysis, and P < 0.05 was considered statistically significant. To clarify tumor contrast, the region of interest (ROI) was delineated, and the mean fluorescence intensity of tumor tissue (T) and background (B) was collected. TBR was used to represent tumor-background contrast. Normal muscle tissue was selected as the background to outline.

22Rv1 tumor xenograft = experiment: In vivo fluorescence imaging of tumor-bearing mice; set-up: species or system BALB/c male nude mice; conditions: for tumor-background ratio (TBR): 60 min after injection, n = 5
Procedure: as §2, §3, §4

[1] = Ex vivo fluorescence imaging of dissected tumors, tissues and organs (distribution); format: in vivo, BALB/c male nude mice; conditions: 22Rv1 tumor-bearing mice, 0.5 mg/kg tail vein, 30, 60, 120 min
Procedure: as §3

[2] = Acute toxicity test (HE staining of organs); format: in vivo, ICR male mice; conditions: 100 mg/kg tail vein, organs collected 7 days later
Procedure: ICR male mice (approximately 3–4 weeks old, with a body weight of 12–16 g) were injected with PSMA-FITC (100 mg/kg) through the tail vein, and organs were collected 7 days later. The organs were sectioned and stained with HE. The control group was injected with the same volume of normal saline. The steps are the same as described above.

[3] = 0.5 mg/kg tail vein, 22Rv1 tumor-bearing mice

O=C(O)CCC(NC(=O)NC(CCCCNC(=O)CCCCCNC(=S)Nc1ccc2c(c1)C(=O)OC21c2ccc(O)cc2Oc2cc(O)ccc21)C(=O)O)C(=O)O (stereo not drawn) [PSMA-FITC]
fluorescence signal in cells (confocal microscopy) (PSMA(−) PC3 cells): negligible fluorescence signaling | fluorescence signal in cells (confocal microscopy) (PSMA(+) LNCaP cells; LNCaP cells pretreated with 2-PMPA (20 μg) for 30 min, then PSMA-FITC 60 min): negligible fluorescence signaling | fluorescence signal in cells (confocal microscopy) (PSMA(+) LNCaP cells; LNCaP cells, 5 μg PSMA-FITC, 37 °C, 60 min, no blocking): Significant fluorescence signals | tumor uptake of the probe (PSMA (−) PC3 tumor): significantly lower than that of 22Rv1 tumor-bearing mice | time of highest tumor-background contrast after injection (22Rv1 tumor xenograft; [3]): 60 min | time to tumor targeting after injection (22Rv1 tumor xenograft; [3]): ≤ 30 min | tumor-background ratio (TBR) (22Rv1 tumor xenograft; blocking group, coinjection of 2-PMPA 2 mg/kg with PSMA-FITC 0.5 mg/kg): 0.44 ± 0.13 | tumor-background ratio (TBR) (22Rv1 tumor xenograft; nonblocking group, PSMA-FITC 0.5 mg/kg tail vein): 3.45 ± 0.31 | fluorescence intensity of liver and small intestine (ex vivo) [1]: strong fluorescence intensity | fluorescence intensity of the bladder (ex vivo) [1]: obviously at a high level | uptake by the kidney (ex vivo fluorescence) [1]: higher than that measured in other normal organs | organ damage (histopathology, HE staining) [2]: not damaged
